Data on 27 compounds can be found in patent US20240150339A1, “Compounds and Their Use as PDE4 Activators” (Mironid Limited, priority 2021, published 2024).

Structures are written as SMILES.

In the first assay the target is T1, PDE4D5 (Homo sapiens, UniProt Q08499).
T1 construct: Using Full-Length Human PDE4 Isoforms: Long Forms PDE4D5, PDE4C3, PDE4B1 and Short Form PDE4B2; made in house; cytosol fraction of the cell lysate, not purified
T1 sequence (Q08499 1-745 isoform Q08499-6): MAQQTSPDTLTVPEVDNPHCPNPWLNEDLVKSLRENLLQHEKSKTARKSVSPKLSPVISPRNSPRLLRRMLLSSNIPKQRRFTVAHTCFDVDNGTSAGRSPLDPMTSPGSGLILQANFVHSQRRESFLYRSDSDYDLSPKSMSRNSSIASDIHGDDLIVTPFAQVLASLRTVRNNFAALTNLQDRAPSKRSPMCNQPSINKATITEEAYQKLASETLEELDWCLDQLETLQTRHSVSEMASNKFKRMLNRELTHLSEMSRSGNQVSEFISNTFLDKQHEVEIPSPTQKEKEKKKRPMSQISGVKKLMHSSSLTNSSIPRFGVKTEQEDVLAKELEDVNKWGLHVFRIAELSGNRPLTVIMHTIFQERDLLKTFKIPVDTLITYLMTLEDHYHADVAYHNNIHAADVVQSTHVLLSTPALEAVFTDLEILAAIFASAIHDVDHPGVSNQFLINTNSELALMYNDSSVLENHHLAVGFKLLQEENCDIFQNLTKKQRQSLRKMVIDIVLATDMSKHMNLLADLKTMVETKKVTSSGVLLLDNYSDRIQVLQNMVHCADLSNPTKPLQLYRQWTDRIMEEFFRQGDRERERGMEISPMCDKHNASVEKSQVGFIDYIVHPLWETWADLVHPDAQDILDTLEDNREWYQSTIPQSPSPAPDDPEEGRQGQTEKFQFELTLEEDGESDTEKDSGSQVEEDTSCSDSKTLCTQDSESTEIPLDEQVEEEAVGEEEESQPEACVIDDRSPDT
Description: PDE assay, activation of full-length human PDE4D5 long form ([3H]cAMP radio-assay). The following applies: 30 μM test compound; mean % increase in counts over basal activity. In kind it is biochemical. The source says: Experiment 1: Measurement of Modulation of Enzyme Activity by PDE4 Long Form Activators of the Present Invention Using Full-Length Human PDE4 Isoforms: Long Forms PDE4D5, PDE4C3, PDE4B1 and Short Form PDE4B2
(Marchmont, R. J. and Houslay, M. D. Biochem. J. 187: 381-92, 1980)
For transient transfection of exogenous PDE4 long isoforms, HEK 293 cells were transfected with pcDNA3.1 or pDEST™ PDE4 expression vectors using Lipofectamine LTX/Plus reagent (Invitrogen) as outlined by the manufacturer.
Where stable cell lines were generated the clonal isolates were expanded to obtain cell lines that stably expressed the full-length human PDE4 long isoforms and the full length human PDE4B2 short isoform. These were called the HEK-PDE4D5, HEK-PDE4B1 and HEK-PDE4B2 cell lines, respectively.
HEK-PDE4D5 cells were seeded out in 100 mm plates and incubated at 37° C. in an atmosphere of 5% CO2, 95% air. Cell lysates were prepared using KHEM buffer [50 mM KCl, 10 mM EGTA, 50 mM HEPES (pH 7.2), 1.92 mM MgCl2].
To prepare the cell lysates, the 100 mm plates containing the cells were placed on ice and washed with ice-cold PBS (phosphate buffered saline, pH 7.4). KHEM buffer (500 μl) was added to the cells. Cells were then scraped off the plate and triturated using a needle (BD Microlance™ 0.8, 40 mm). The lysed cells were then centrifuged at 2000 rpm for 10 minutes to remove cell debris and the supernatant (cell lysate containing recombinant PDE4D5) was transferred to a fresh tube and kept on ice.
The cell lysate containing recombinant PDE4D5 was transferred into a centrifuge tube and placed into an ultracentrifuge (BECKMAN COULTER) and spun at high speed (100,000 g) for 30 minutes at 4° C. The cytosol fraction was then collected and its protein amount determined using a BCA protein assay.
PDE assays were performed in thin walled V-bottomed 96-well plates. The assays were performed at a final concentration of 10 mM Tris/5 mM MgCl2 μlus PDE4D5 cell lysate cytosol fraction, containing over-expressed PDE4D5, with and without test compound. The lysate/compound mix were incubated together for 15 min at room temperature on an orbital shaker prior to addition of [^3H] cAMP (final concentration 1 μM [^3H] cAMP; Perkin Elmer) to a final volume of 50 μl per reaction. The reactions were then incubated for 10 minutes at 30° C., terminated by heating for 2 min at 95° C. and allowed to cool. Snake venom (12.5 μl of 1 mg/ml; Crotalus atrox, Sigma) was then added and the plates were agitated and incubated for a further 15 minutes at 30° C. Dowex ion exchange resin (Sigma, chloride form, 200-400 mesh; 200 μl; prepared as a 1:1 Dowex: water stock, thoroughly re-suspended and diluted 2:1 with ethanol) was then added to each well and the plates incubated for 15 min at room temperature on an orbital shaker ensuring sufficient agitation for resin suspension (550 RPM). The reaction mixture was then transferred to a 96 well filter plate (Millipore; […] pore size) and filtered into a receiving 96-well plate to remove the dowex suspension. 30 μL of the filtered solution was then transferred to the wells of an Opti-plate (Perkin Elmer) 96 well assay plate and 120 μl of Microscint 40 scintillation fluid was added. The plate was then placed on an orbital shaker for 10 min at high speed (900 RPM) to mix the sample with scintillation fluid prior to quantitation using a plate based scintillation counter (Top-Count).
The % increase in counts in the presence of test compound at a particular concentration indicates the % increase in enzyme activity at that concentration.
`Cc1ccc(-c2nc3ccc(C(=O)N[C@H]4CCCc5ccccc54)cc3s2)cn1` [Example 23, (S)-2-(6-methylpyridin-3-yl)-N-(1,2,3,4-tetrahydronaphthalen-1-yl)benzo[d]thiazole-6-carboxamide] registered an activation at 30 µM of 94%. `Cc1ccc(-c2nc3ccc(C(=O)NC4CCCC4)cc3s2)cn1` [Example 22, N-cyclopentyl-2-(6-methylpyridin-3-yl)benzo[d]thiazole-6-carboxamide] showed an activation at 30 µM of 39%.

In turn, `O=C(N[C@H]1CCOc2ccccc21)c1ccc2nc(-c3ccncc3)sc2c1` [Example 54, (S)-N-(chroman-4-yl)-2-(pyridin-4-yl)benzo[d]thiazole-6-carboxamide] gave an activation at 30 µM of 106%. On the same count and under the same terms, for `Cc1cnn(C)c1-c1nc2ccc(C(=O)N[C@H]3CCOc4ccccc43)cc2s1` [Example 58, (S)-N-(chroman-4-yl)-2-(1,4-dimethyl-1H-pyrazol-5-yl)benzo[d]thiazole-6-carboxamide] the value was 101%; for `O=C(N[C@H]1CCOc2ccccc21)c1ccc2nc(-c3ccc(C(F)F)nc3)sc2c1` [Example 64, (S)-N-(chroman-4-yl)-2-(6-(difluoromethyl)pyridin-3-yl)benzo[d]thiazole-6-carboxamide], 64%. Consider `Cc1ccc(-c2nc3ccc(C(=O)N[C@H]4c5ccccc5C[C@H]4O)cc3s2)cn1` [Example 19, N-((1S,2R)-2-hydroxy-2,3-dihydro-1H-inden-1-yl)-2-(6-methylpyridin-3-yl)benzo[d]thiazole-6-carboxamide], for which the activation at 30 µM amounted to 73%.

Turning to `Cc1ccc(-c2nc3ccc(C(=O)N[C@H]4CCc5ccccc54)cc3s2)cn1` [Example 17, (S)-N-(2,3-dihydro-1H-inden-1-yl)-2-(6-methylpyridin-3-yl)benzo[d]thiazole-6-carboxamide], the activation at 30 µM amounted to 171%. On the same count and under the same terms, for `Cc1cncc(-c2nc3ccc(C(=O)N[C@H]4CCCc5ccccc54)cc3s2)c1` [Example 44, (S)-2-(5-methylpyridin-3-yl)-N-(1,2,3,4-tetrahydronaphthalen-1-yl)benzo[d]thiazole-6-carboxamide] the value was 87%; for `COc1ccc(CNC(=O)c2ccc3nc(-c4ccc(C)nc4)sc3c2)cc1` [Example 13, N-(4-methoxybenzyl)-2-(6-methylpyridin-3-yl)benzo[d]thiazole-6-carboxamide], 93%; for `Cc1ccc(-c2nc3ccc(C(=O)NCc4ccc(F)cc4)cc3s2)cn1` [Example 12, N-(4-fluorobenzyl)-2-(6-methylpyridin-3-yl)benzo[d]thiazole-6-carboxamide], 58%. As for `O=C(N[C@H]1CCCc2ccccc21)c1ccc2nc(-c3cccnc3)sc2c1` [Example 8, (S)-2-(pyridin-3-yl)-N-(1,2,3,4-tetrahydronaphthalen-1-yl)benzo[d]thiazole-6-carboxamide], the activation at 30 µM is 82%. For `Cc1cncc(-c2nc3ccc(C(=O)N[C@H]4c5ccccc5C[C@@H]4O)cc3s2)c1` [Example 41, N-((1S,2S)-2-hydroxy-2,3-dihydro-1H-inden-1-yl)-2-(5-methylpyridin-3-yl)benzo[d]thiazole-6-carboxamide], the activation at 30 µM was 194%. `Cc1ccc(-c2nc3ccc(C(=O)N[C@@H]4c5ccccc5C[C@@H]4O)cc3s2)cn1` [Example 20, N-((1R,2S)-2-hydroxy-2,3-dihydro-1H-inden-1-yl)-2-(6-methylpyridin-3-yl)benzo[d]thiazole-6-carboxamide] displayed an activation at 30 µM of 105%. For `Cc1ccc(-c2nc3ccc(C(=O)NCc4cccc(Cl)c4)cc3s2)cn1` [Example 14, N-(3-chlorobenzyl)-2-(6-methylpyridin-3-yl)benzo[d]thiazole-6-carboxamide], the activation at 30 µM is 120%. For the compound `Cc1cncc(-c2nc3ccc(C(=O)N[C@H]4CCOc5ccccc54)cc3s2)c1` [Example 45, (S)-N-(chroman-4-yl)-2-(5-methylpyridin-3-yl)benzo[d]thiazole-6-carboxamide], the activation at 30 µM was 102%.

In turn, `Cc1ccc(-c2nc3ccc(C(=O)N[C@H]4CCOc5ccccc54)cc3s2)cn1` [Example 24, (S)-N-(chroman-4-yl)-2-(6-methylpyridin-3-yl)benzo[d]thiazole-6-carboxamide] displayed an activation at 30 µM of 97%. Still for that read-out and setting: the figure for `Cc1ccc(-c2nc3ccc(C(=O)N[C@H]4CCOc5ccccc54)cc3s2)c(C)n1` [Example 26, (S)-N-(chroman-4-yl)-2-(2,6-dimethylpyridin-3-yl)benzo[d]thiazole-6-carboxamide] is 88%; for `O=C(N[C@H]1CCOc2ccccc21)c1ccc2nc(-c3cncc(CO)c3)sc2c1` [Example 62, (S)-N-(chroman-4-yl)-2-(5-(hydroxymethyl)pyridin-3-yl)benzo[d]thiazole-6-carboxamide] it is 133%.

In the case of `O=C(N[C@H]1CCOc2ccccc21)c1ccc2nc(N3CCCCC3)sc2c1` [Example 76, (S)-N-(chroman-4-yl)-2-(piperidin-1-yl)benzo[d]thiazole-6-carboxamide], the activation at 30 µM was found to be 57%. The same measure, in the same setting: the figure for `O=C(N[C@H]1CCOc2ccccc21)c1ccc2nc(-c3ccc(C4CC4)nc3)sc2c1` [Example 27, (S)-N-(chroman-4-yl)-2-(6-cyclopropylpyridin-3-yl)benzo[d]thiazole-6-carboxamide] is 154%.

Consider `Cc1c(-c2nc3ccc(C(=O)N[C@H]4CCOc5ccccc54)cc3s2)cnn1C` [Example 60, (S)-N-(chroman-4-yl)-2-(1,5-dimethyl-1H-pyrazol-4-yl)benzo[d]thiazole-6-carboxamide], for which the activation at 30 µM turned out to be 122%. Compound `O=C(N[C@H]1CCOc2ccccc21)c1ccc2sc(-c3cccnc3)nc2c1` [Example 67, (S)-N-(chroman-4-yl)-2-(pyridin-3-yl)benzo[d]thiazole-5-carboxamide] returned an activation at 30 µM of 89%.

As for `Cc1ccc(-c2nc3ccc(C(=O)N[C@@H]4CCc5ccccc54)cc3s2)cn1` [Example 18, (R)-N-(2,3-dihydro-1H-inden-1-yl)-2-(6-methylpyridin-3-yl)benzo[d]thiazole-6-carboxamide], the activation at 30 µM was 142%.

The compound `CCN1CCN(c2nc3ccc(C(=O)N[C@H]4CCOc5ccccc54)cc3s2)CC1` [Example 72, (S)-N-(chroman-4-yl)-2-(4-ethylpiperazin-1-yl)benzo[d]thiazole-6-carboxamide] registered an activation at 30 µM of 32%. Still for that read-out and setting: for `Cc1ccncc1-c1nc2cc(C(=O)N[C@H]3CCOc4ccccc43)ccc2s1` [Example 66, (S)-N-(chroman-4-yl)-2-(4-methylpyridin-3-yl)benzo[d]thiazole-5-carboxamide] the value was 78%; for `Cc1ccc(-c2nc3ccc(C(=O)NCc4ccc(Cl)cc4)cc3s2)cn1` [Example 11, N-(4-chlorobenzyl)-2-(6-methylpyridin-3-yl)benzo[d]thiazole-6-carboxamide], 104%; for `Cc1ccc(-c2nc3ccc(C(=O)NCc4cccc(F)c4)cc3s2)cn1` [Example 15, N-(3-fluorobenzyl)-2-(6-methylpyridin-3-yl)benzo[d]thiazole-6-carboxamide], 99%.

The assay is the same for the next values; noted with them: concentration response, result in words.
Turning to `Cc1ccncc1-c1nc2cc(C(=O)N[C@H]3CCOc4ccccc43)ccc2s1` [Example 66, (S)-N-(chroman-4-yl)-2-(4-methylpyridin-3-yl)benzo[d]thiazole-5-carboxamide], the “Activation of PDE4D5 (FIG. 1)” value is reported as “concentration-dependent activation”.
